Results from US20260315483A1, “HETEROCYCLIC COMPOUNDS AS TRIGGERING RECEPTOR EXPRESSED ON MYELOID CELLS 2 AGONISTS AND METHODS OF USE” (VIGIL NEUROSCIENCE, INC., priority 2023, published 2026).

Biological target: T1, human TREM2 (Homo sapiens, UniProt Q9NZC2)
T1 construct: expressed in transfected cells; host or cells: HEK293T-hTREM2 cells (HEK cell line expressing human TREM2 and DAP12)
Experiment: In vitro measurement of TREM2 activity using cellular phosphorylation of spleen tyrosine kinase (Syk), AlphaLisa, HEK293T-hTREM2 cells
Type: cell-based
Details: HEK293T cells expressing human TREM2 and DAP12, 45 min at room temperature
Description: In Vitro Measurement of Triggering Receptor Expressed on Myeloid Cells 2 Activity Using Cellular Phosphorylation of Spleen Tyrosine Kinase (“Syk”) Assays
Measurement of TREM2 agonist potency was done using a HEK cell line expressing human TREM2 and DAP12 (HEK293T-hTREM2 cells). Binding of small molecules to, and activation of, TREM2 increases the phosphorylation of Syk. The resultant levels of Syk phosphorylation are measured using a commercial AlphaLisa reagent kit. To perform the assay, HEK-hTREM2 cells were plated at 14,000 cells per well in a 384 well plate, in 25 μL of complete growth media and incubated at 37° C., 5% CO2 for 20-24 hours.
Prior to the assay, test compounds were diluted in the 384 well plates in assay buffer and allowed to equilibrate for 30 minutes. Growth media was removed from cell plates by inversion on blotting paper, and 25 μL of test articles in assay buffer was added to cells. Cells were incubated for 45 minutes at room temperature. After 45 minutes, assay buffer was removed and 10 μL of lysis buffer was added. Plates were shaken for 20 minutes at 350 RPM at room temperature. After complete lysis, AlphaLisa reagents were added to the lysate, and fluourescence intensity was measured using a Perkin Elmer Envision plate reader. Intensities were used to generate a standard curve, and % activation was calculated. Curve fitting was performed using Prism v9 software, log(agonist) vs response—variable slope (four parameters), and EC50s were calculated from the curve fit.
The results presented in Tables D and D-2 have been generated with the in vitro assay described above. This assay may be used to test any of the compounds described herein to assess and characterize a compound's ability to act as an agonist of TREM2.

T1 sequence (Q9NZC2 19-230): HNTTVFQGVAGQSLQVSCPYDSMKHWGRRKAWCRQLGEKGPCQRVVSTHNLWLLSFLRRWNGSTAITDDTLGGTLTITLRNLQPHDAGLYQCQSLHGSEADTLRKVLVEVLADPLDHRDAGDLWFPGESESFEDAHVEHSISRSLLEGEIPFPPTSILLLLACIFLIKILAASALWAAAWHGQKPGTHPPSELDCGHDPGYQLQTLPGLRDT
T1 sequence (O43914 22-113 partner): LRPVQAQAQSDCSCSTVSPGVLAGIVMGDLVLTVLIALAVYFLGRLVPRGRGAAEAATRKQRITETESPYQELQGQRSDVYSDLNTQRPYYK

C[C@@H]1CCCN1c1nc2nc([C@H]3CCO[C@@H](c4cnn(C5CC5)c4)C3)nc(-c3ccc(F)cc3F)c2n1C [compound 124, 6-(2,4-difluorophenyl)-7-methyl-2-[(2R,4S)-2-(1-cyclopropylpyrazol-4-yl)tetrahydropyran-4-yl]-8-[(2R)-2-methylpyrrolidin-1-yl]purine]
EC50 (Table D): 50 to 500 nM

C[C@H]1CCCN1c1nc2nc([C@H]3CCO[C@@H](c4cnn(C5CC5)c4)C3)nc(-c3ccc(F)cc3F)c2n1C [compound 125]
EC50 (Table D): 50 to 500 nM

C[C@@H]1CN(c2nc(-c3ccc(C(F)(F)F)cc3F)c3[nH]c(N(C)C)nc3n2)C[C@H](c2cnn(C3CC3)c2)O1 [compound 126, 2-((2S,6R)-2-(1-cyclopropyl-1H-pyrazol-4-yl)-6-methylmorpholino)-6-(2-fluoro-4-(trifluoromethyl)phenyl)-N,N-dimethyl-9H-purin-8-amine]
EC50 (Table D): 50 to 500 nM

Cn1c(C(F)F)nc2nc([C@H]3CCO[C@@H](c4cnn(C5CC5)c4)C3)nc(-c3ccc(C(F)(F)F)cc3F)c21 [compound 127, 2-[(2R,4S)-2-(1-cyclopropylpyrazol-4-yl)tetrahydropyran-4-yl]-8-(difluoromethyl)-6-[2-fluoro-4-(trifluoromethyl)phenyl]-7-methyl-purine]
EC50 (Table D): 50 to 500 nM

CN(C)c1nc2c(C34CC(C(F)(F)F)(C3)C4)nc([C@H]3CCO[C@@H](c4cnn(C5CC5)c4)C3)nc2n1C [compound 128, 2-[(2R,4S)-2-(1-cyclopropylpyrazol-4-yl)tetrahydropyran-4-yl]-N,N-9-trimethyl-6-[3-(trifluoromethyl)-1-bicyclo[1.1.1]pentanyl]purin-8-amine]
EC50 (Table D): 500 to 3000 nM

CN(C)c1nc2nc([C@H]3CCO[C@@H](c4cnn(C5CC5)c4)C3)nc(C34CC(C(F)(F)F)(C3)C4)c2[nH]1 [compound 129, 2-[(2R,4S)-2-(1-cyclopropylpyrazol-4-yl)tetrahydropyran-4-yl]-N,N-dimethyl-6-[3-(trifluoromethyl)-1-bicyclo[1.1.1]pentanyl]-7H-purin-8-amine]
EC50 (Table D): 500 to 3000 nM

C[C@@H]1CN(c2nc(C34CC(C(F)(F)F)(C3)C4)c3c(n2)nc(N(C)C)n3C)C[C@H](c2cnn(C3CC3)c2)O1 [compound 130, 2-[(2S,6R)-2-(1-cyclopropylpyrazol-4-yl)-6-methyl-morpholin-4-yl]-N,N,7-trimethyl-6-[3-(trifluoromethyl)-1-bicyclo[1.1.1]pentanyl]purin-8-amine]
EC50 (Table D): ≤ 50 nM

C[C@@H]1CN(c2cc(-c3ccc(F)cc3F)n3ncnc3n2)C[C@H](c2cnn(C3CC3)c2)O1 [compound 131, (2S,6R)-2-(1-cyclopropyl-1H-pyrazol-4-yl)-4-(7-(2,4-difluorophenyl)-[1,2,4]triazolo[1,5-a]pyrimidin-5-yl)-6-methylmorpholine]
EC50 (Table D): 500 to 3000 nM

Cc1c(F)ccc(-c2cc(N3C[C@@H](C)O[C@@H](c4cnn(C5CC5)c4)C3)nc3ncnn23)c1F [compound 132, (2S,6R)-2-(1-cyclopropyl-1H-pyrazol-4-yl)-4-(7-(2,4-difluoro-3-methylphenyl)-[1,2,4]triazolo[1,5-a]pyrimidin-5-yl)-6-methylmorpholine]
EC50 (Table D): 500 to 3000 nM

Cc1cn2c(-c3ccc(C(F)(F)F)cc3F)nc([C@H]3CCO[C@@H](c4cnn(C5CC5)c4)C3)cc2n1 [compound 133, 7-((2R,4S)-2-(1-cyclopropyl-1H-pyrazol-4-yl)tetrahydro-2H-pyran-4-yl)-5-(2-fluoro-4-(trifluoromethyl)phenyl)-2-methylimidazo[1,2-c]pyrimidine]
EC50 (Table D): 50 to 500 nM

Cc1cn2c(-c3ccc(Cl)cc3F)nc(N3C[C@@H](C)O[C@@H](c4cnn(C5CC5)c4)C3)cc2n1 [compound 134, (2S,6R)-4-(5-(4-chloro-2-fluorophenyl)-2-methylimidazo[1,2-c]pyrimidin-7-yl)-2-(1-cyclopropyl-1H-pyrazol-4-yl)-6-methylmorpholine]
EC50 (Table D): 50 to 500 nM

CN1Cc2c(cc(N3CCO[C@@H](c4cnn(C)c4)C3)nc2-c2ccc(Cl)cc2F)C1=O [compound 200]
EC50 (Table D-2): 3000 to 100000 nM

Cc1cc([C@H]2CN(c3cc4c(c(-c5ccc(Cl)cc5F)n3)CN(C)C4=O)CCO2)ccn1 [compound 201]
EC50 (Table D-2): 500 to 3000 nM

CN1Cc2c(cc(N3CCO[C@@H](c4cnn(C)c4)C3)nc2-c2ccc(F)cc2F)C1=O [compound 202]
EC50 (Table D-2): 500 to 3000 nM

Cc1cc([C@H]2CN(c3cc4c(c(-c5ccc(F)cc5F)n3)CN(C)C4=O)CCO2)ccn1 [compound 203]
EC50 (Table D-2): 3000 to 100000 nM

CCN1Cc2c(cc(N3CCO[C@@H](c4cnn(C)c4)C3)nc2-c2ccc(Cl)cc2F)C1=O [compound 204]
EC50 (Table D-2): 50 to 500 nM

CC(C)N1Cc2c(cc(N3CCO[C@@H](c4cnn(C)c4)C3)nc2-c2ccc(Cl)cc2F)C1=O [compound 205]
EC50 (Table D-2): 500 to 3000 nM

C[C@H]1CN(c2cc3c(c(-c4ccc(Cl)cc4F)n2)CN(C)C3=O)CCO1 [compound 206]
EC50 (Table D-2): 500 to 3000 nM

CN1C(=O)c2cc(-c3ccc(Cl)cc3F)nc(N3CCO[C@@H](c4cnn(C)c4)C3)c2C1(C)C [compound 207]
EC50 (Table D-2): 3000 to 100000 nM

CN1C(=O)c2cc(N3CCO[C@@H](c4cnn(C)c4)C3)nc(-c3ccc(Cl)cc3F)c2C1(C)C [compound 208]
EC50 (Table D-2): 3000 to 100000 nM

C[C@@H]1c2c(cc(N3CCO[C@@H](c4cnn(C)c4)C3)nc2-c2ccc(Cl)cc2F)C(=O)N1C [compound 209]
EC50 (Table D-2): 3000 to 100000 nM

CN1Cc2c(cc(-c3ccc(Cl)cc3F)nc2-c2ccc(Cl)cc2F)C1=O [compound 210]
EC50 (Table D-2): 3000 to 100000 nM

C[C@H]1c2c(cc(-c3ccc(Cl)cc3F)nc2-c2ccc(Cl)cc2F)C(=O)N1C [compound 211]
EC50 (Table D-2): 3000 to 100000 nM

CN1Cc2c(cc(N3CCO[C@@H](c4cnn(C5CC5)c4)C3)nc2-c2ccc(Cl)cc2F)C1=O [compound 212]
EC50 (Table D-2): 50 to 500 nM

Cc1cc([C@H]2CN(c3cc4c(c(-c5ccc(Cl)cc5F)n3)C(C)N(C)C4=O)CCO2)ccn1 (stereo partly drawn) [compound 213]
EC50 (Table D-2): 3000 to 100000 nM

Cc1cc([C@H]2CN(c3cc4c(c(-c5ccc(Cl)cc5F)n3)[C@@H](C)N(C)C4=O)CCO2)ccn1 [compound 214]
EC50 (Table D-2): 3000 to 100000 nM

Cc1cc([C@H]2CN(c3cc4c(c(-c5ccc(Cl)cc5F)n3)[C@H](C)N(C)C4=O)CCO2)ccn1 [compound 215]
EC50 (Table D-2): 3000 to 100000 nM

CN1Cc2c(cc(N3CCO[C@@H](c4cnn(C)c4)C3)nc2C2CC(C(F)(F)F)C2)C1=O (stereo partly drawn) [compound 216]
EC50 (Table D-2): 3000 to 100000 nM

Cc1cc([C@H]2CN(c3cc4c(c(-c5ccc(Cl)cc5F)n3)CN(C)C4=O)CCO2)cnn1 [compound 217]
EC50 (Table D-2): 500 to 3000 nM

CN1C(=O)c2cc([C@@H]3CCO[C@H](c4cnn(C5CC5)c4)C3)nc(-c3ccc(F)cc3F)c2C1=O [compound 218]
EC50 (Table D-2): 500 to 3000 nM

CN1C(=O)c2cc([C@H]3CCO[C@@H](c4cnn(C5CC5)c4)C3)nc(-c3ccc(F)cc3F)c2C1=O [compound 219]
EC50 (Table D-2): 500 to 3000 nM

C[C@@H]1CN(c2cc3c(c(C4CC(C(F)(F)F)C4)n2)CN(C)C3=O)C[C@H](c2cnn(C3CC3)c2)O1 (stereo partly drawn) [compound 220]
EC50 (Table D-2): 50 to 500 nM

C[C@@H]1CN(c2cc3c(c(-c4ccc(C(F)(F)F)cc4F)n2)CN(C)C3=O)C[C@H](c2cnn(C3CC3)c2)O1 [compound 221]
EC50 (Table D-2): ≤ 50 nM

CN1Cc2c(cc(C3CCO[C@@H](c4cnn(C5CC5)c4)C3)nc2-c2ccc(C(F)(F)F)cc2F)C1=O (stereo partly drawn) [compound 222]
EC50 (Table D-2): 50 to 500 nM

CN1Cc2c(cc([C@@H]3CCO[C@@H](c4cnn(C5CC5)c4)C3)nc2-c2ccc(C(F)(F)F)cc2F)C1=O [compound 223]
EC50 (Table D-2): 50 to 500 nM

CN1Cc2c(cc([C@H]3CCO[C@@H](c4cnn(C5CC5)c4)C3)nc2-c2ccc(C(F)(F)F)cc2F)C1=O [compound 224]
EC50 (Table D-2): 50 to 500 nM

CN1Cc2c(cc(C3CCO[C@@H](c4cnn(C5CC5)c4)C3)nc2C2CC(C(F)(F)F)C2)C1=O (stereo partly drawn) [compound 225]
EC50 (Table D-2): 50 to 500 nM

CN1Cc2c(cc([C@H]3CCO[C@@H](c4cnn(C5CC5)c4)C3)nc2C23CC(C(F)(F)F)(C2)C3)C1=O [compound 226]
EC50 (Table D-2): 50 to 500 nM

C[C@@H]1CN(c2cc3c(c(-c4ccc(C(F)(F)F)cc4F)n2)CN(c2ccn(C)n2)C3=O)C[C@H](c2cnn(C3CC3)c2)O1 [compound 228, 6-((2S,6R)-2-(1-cyclopropyl-1H-pyrazol-4-yl)-6-methylmorpholino)-4-(2-fluoro-4-(trifluoromethyl)phenyl)-2-(1-methyl-1H-pyrazol-3-yl)-2,3-dihydro-1H-pyrrolo[3,4-c]pyridin-1-one]
EC50 (Table D-2): ≤ 50 nM
